Measurements as given in patent publication US7622482B2, “Chemical compounds” (AstraZeneca, priority 2005, dated 2009).

target: T1, human Trk A kinase (Homo sapiens, UniProt P04629); assay: Trk A kinase assay (Alphascreen); format: biochemical; conditions: intracellular domain of HIS-tagged human Trk A, 70 μM ATP, 20 minutes, room temperature, read-out: Trk inhibitory activity IC50
T1 construct: His; made in house; host or cells: SF9 insect cells
Description: Trk A kinase activity was measured for its ability to phosphorylate synthetic tyrosine residues within a generic polypeptide substrate using an Amplified Luminescent Proximity Assay (Alphascreen) technology (PerkinElmer, 549 Albany Street, Boston, Mass.).
To measure Trk A kinase activity, the intracellular domain of a HIS-tagged human Trk A kinase (amino acids 442-796 of Trk A, Swiss-Prot Primary Accession Number P04629) was expressed in SF9 cells and purified using standard nickel column chromatography. After incubation of the kinase with a biotinylated substrate and adenosine triphosphate (ATP) for 20 minutes at room temperature, the kinase reaction was stopped by the addition of 30 mM ethylenediaminetetraacetic acid (EDTA). The reaction was performed in 384 well microtitre plates and the reaction products were detected with the addition of strepavidin coated Donor Beads and phosphotyrosine-specific antibodies coated Acceptor Beads using the EnVision Multilabel Plate Reader after an overnight incubation at room temperature.

T1 sequence (P04629 442-796): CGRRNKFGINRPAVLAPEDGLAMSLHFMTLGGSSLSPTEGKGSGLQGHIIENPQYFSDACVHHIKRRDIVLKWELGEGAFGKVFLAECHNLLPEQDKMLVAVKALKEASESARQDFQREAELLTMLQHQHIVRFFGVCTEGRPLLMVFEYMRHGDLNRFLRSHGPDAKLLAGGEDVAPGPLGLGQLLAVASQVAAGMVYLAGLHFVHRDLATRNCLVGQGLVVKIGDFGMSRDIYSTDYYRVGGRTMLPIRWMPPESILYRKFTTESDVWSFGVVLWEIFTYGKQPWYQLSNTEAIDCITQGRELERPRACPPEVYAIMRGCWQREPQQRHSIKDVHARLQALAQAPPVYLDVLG

IC50 [µM]	Compound
0.049	C[C@@H](c1ccc(F)cc1)n1cnc2ccc(Nc3cc(C4CC4)[nH]n3)nc21 [Example 6, (S)—N-(5-Cyclopronyl-1H-pyrazol-3-yl)-3-(1-(4-fluorophenyl)ethyl)-3H-imidazo[4,5-b]pyridin-5-amine]
0.011	Fc1ccc(Cn2cnc3cc(Cl)c(Nc4cc(C5CC5)[nH]n4)nc32)cc1 [Example 18, 3-(4-Fluorobenzyl)-6-chloro-N-(5-cyclopropyl-1H-pyrazol-3-yl)-3H-imidazo[4,5-b]pyridin-5-amine]
0.063	CC(C)Oc1cc(Nc2ncc3ncn([C@@H](C)c4ccc(F)cc4)c3n2)n[nH]1 [Example 5, 9-[(1S)-1-(4-Fluorophenyl)ethyl]-N-(5-isopropoxy-1H-pyrazol-3-yl)-9H-purin-2-amine]
